Blank lines part the entries; values can stand above or below the compound they belong to.
Experiments:
[1] = target: T1, recombinant LRAT enzyme (Homo sapiens, UniProt O95237); test: LRAT inhibition assay; assay type: biochemical; settings: inhibitor concentration 100 [μm]; relative to non-inhibited control reaction
T1 construct: purchased Abnova H00009227-PO1
T1 sequence (O95237 1-230): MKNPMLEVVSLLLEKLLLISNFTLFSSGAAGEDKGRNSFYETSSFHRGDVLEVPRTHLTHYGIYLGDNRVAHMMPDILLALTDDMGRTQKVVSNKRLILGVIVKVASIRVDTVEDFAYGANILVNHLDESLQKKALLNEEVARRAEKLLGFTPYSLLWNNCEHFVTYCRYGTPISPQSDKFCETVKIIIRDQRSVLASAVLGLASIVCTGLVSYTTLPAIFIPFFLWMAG
Method: The following buffer was prepared and stored at 4° C.: 0.05 M potassium phosphate, 2.5 mM dithioerythritol, pH 7.0(PO4/DTE). On the day of the assay, 1 mg BSA per mL of buffer was added to give a P04/DTE/BSA working buffer. Retinol substrate (Fluke, 1 mM) was prepared in acetonitrile (Riedel-de-Haen, Chromasolv) and stored in amber bottles under nitrogen gas at −20° C. Solutions of 4 mM dilauroyl phosphatidyl choline in ethanol were prepared and stored at −20° C. Inhibitors were prepared as 10 mM stock solutions according their solubilities in H2O, ethanol, acetonitrile, DMSO or acetic acid. The quenching solution was prepared using pure ethanol containing 50 μg/mL butylhydroxytoluene (Aldrich, BHT) A pentane solution containing 50 μg/mL BHT was used for the extractions.
To a 2 dram glass vial, the following were added in order: […] buffer to give a total volume of 500 μL, 5 μL acyl donor (dilauroyl phosphatidyl choline), 5 μL inhibitor or solvent blank (10 mM stock or further dilutions) followed by 2 μg recombinant LRAT enzyme (Abnova, H00009227-PO1). The mixture was incubated for 5 min. at 37° C. to equilibrate the reaction temperature and then 5 μL of a 1 mM retinol solution was added. The vials were capped, vortexed for 5 seconds and incubated for 60 minutes at 37° C. The reaction was quenched by adding 0.5 mL of a ethanol/BHT quenching solution. The retinoids were extracted by adding 1 mL pentane/BHT, vortexing the tubes for several seconds and centrifuging the tubes at 4000 rpm in a bench-top centrifuge for 5 min. to quickly separate the layers. The upper pentane layer was removed into a clean vial, and the aqueous layer re-extracted twice with another 1 mL pentane/BHT, as described above. […] The dried residue was stored at −20° C. and directly analyzed by HPLC. The amount of retinyl laurate was quantified for LRAT activity by integration of the HPLC or UPLC signal as described below. […]
Two HPLC protocols were used for retinoid analysis. The separation of retinol and retinol esters was performed with a reverse-phase analytical column (Waters Symmetry (R), 75×4.6 mm, 3.5 μm; Eluent A: 0.07% trifluoroacetic acid TFA in water, B: 0.07% TFA in acetonitrile (AcN), linear gradient from 1% B to 99% B in 6 min, 24 min on 99% B) or ACQUITY UPLC BEH Phenyl 1.7 μm 2.1×50 mm (0.02% TFA in water and eluent B, 0.02% TFA in AcN with a gradient of 2% to 99% B in 0.9 min, 99% B for 1 min, from 99% to 2% B in 0.1 min and flow rate 0.5 ml/min at 40° C. The eluate was monitored with a PDA detector for absorbance at 325 nm. Quantification of the retinol and retinylester peak was based on references retinoic acid and retinyl acetate (Fluke). The inhibition [%] was calculated relative to the product yield from the non-inhibited control reaction.

[2] = system: living human skin explants; test: Epidermal thickness on living human skin explants; assay type: cell-based; set-up: key: 0 = unchanged; (+) = very slight increased; + = slight increased; ++ = moderate increased; +++ = fairly clear increased; ++++ = clear increased; settings: topical
Method: (§1) On an abdoplasty coming from a person with a type II phototype, 51 circular skin explants of 11±1 mm in diameter were prepared. The explants were kept for survival in BEM culture medium (BIO-EC's Explants Medium, Longjumeau, France) at 37° C. in a humid, 5% CO2 atmosphere
(§2) Each morning on day 0, 1, 4 and 6 the test products (except retinol) were applied topically on the basis of […] (2 mg/cm2) of the concerned skin explants and spread using a small spatula. Each evening on day 0, 1, 4, 6 the retinol was applied topically on the basis of 2 μl/ explants (2 mg/cm2) of the concerned skin explants and spread using a small spatula. The vehicle V (DMSO 100%) was applied topically (same protocol as for products) in the morning and in the evening on day0, 1, 4, 6. The culture medium was refreshed on dayl, 4 and 6.
(§3) On day 0, 3 explants from the batch at day 0 were collected and cut in two parts. Half was fixed in buffered formalin solution and half was frozen at −80° C. On day 8, 3 explants from each experimental condition were collected and processed in the same way as on day 0.
(§4) After fixation for 24 hours in buffered formalin, the samples were dehydrated and impregnated in paraffin using a Leica PEARL dehydration automat. The samples were embedded using a Leica EG 1160 embedding station. 5-μm-thick sections were made using a Leica RM 2125 Minot-type microtome, and the sections were mounted on Superfrost® histological glass slides. The frozen samples were cut at 7-μm thickness with a Leica CM 3050 cryostat. The sections were then mounted on silanized glass slides Superfrost® Plus. The microscopical observations were realized using a Leica DMLB or Olympus BX43 microscope. Pictures were digitized with a numeric DP72 Olympus camera with cellSens storing software.
The cell viability of the epidermal and dermal structures was controlled on formalin-fixed paraffin-embedded (FFPE) skin sections after to Masson's trichrome staining, Goldner variant. The cell viability was assessed by microscopical observation.

[3] = system: Collagen III; test: Collagen III immunostaining on living human skin explants; assay type: cell-based; set-up: key: 0 = unchanged; (+) = very slight increased; + = slight increased; ++ = moderate increased; +++ = fairly clear increased; ++++ = clear increased; settings: topical
Method: as §1, §2, §3, §4
The staining was assessed by microscopical observation

[4] = LRAT inhibitor 0.005% with Retinol 0.05%
[5] = LRAT inhibitor 0.005%, no retinol
[6] = LRAT inhibitor 0.01% with Retinol 0.05%
[7] = LRAT inhibitor 0.01%, no retinol
[8] = LRAT inhibitor 0.1% with Retinol 0.05%

Compound: CCCCCCCCCCS(=O)(=O)NC(Cc1cccc(C(=N)N)c1)C(=O)N1CCN(S(C)(=O)=O)CC1 (centres unmarked) [LRAT-IA, DECS-(L)-F(3AMD)-Pzd(N-SO2Me)]
change of Epidermis thickness compared to control (vehicle only) on day 8 [2, 4]: +
change of Epidermis thickness compared to control (vehicle only) on day 8 [2, 5]: (+)
change of Epidermis thickness compared to control (vehicle only) on day 8 [2, 6]: +
change of Epidermis thickness compared to control (vehicle only) on day 8 [2, 7]: +
change of Epidermis thickness compared to control (vehicle only) on day 8 [2, 8]: +
change of Collagen III level (staining) compared to control (vehicle only) on day 8 [3, 4]: +
change of Collagen III level (staining) compared to control (vehicle only) on day 8 [3, 5]: 0
change of Collagen III level (staining) compared to control (vehicle only) on day 8 [3, 6]: ++
change of Collagen III level (staining) compared to control (vehicle only) on day 8 [3, 7]: 0
change of Collagen III level (staining) compared to control (vehicle only) on day 8 [3, 8]: +++
change of Collagen III level (staining) compared to control (vehicle only) on day 8 ([3]; LRAT inhibitor 0.1%, no retinol): ++

Compound: CCCCCCCCS(=O)(=O)NC(Cc1cccc(C(=N)N)c1)C(=O)N1CCN(S(=O)(=O)CCCCCCCC)CC1 (centres unmarked) [OCTS-(D,L)-F(3AMD)-Pzd(N—SO2Oct)]
LRAT inhibition, Inhibition [%] [1]: 89.9%

Compound: CC1=C(/C=C/C(C)=C/C=C/C(C)=C/CO)C(C)(C)CCC1 [Retinol, reference compound]
change of Epidermis thickness compared to control (vehicle only) on day 8 ([2]; Retinol 0.05% alone): +
change of Collagen III level (staining) compared to control (vehicle only) on day 8 ([3]; Retinol 0.05% alone): +

More lines, now with the values ahead:

LRAT inhibition, Inhibition [%] [1]: 38.7%
Compound: CC(=O)N1CCN(C(=O)[C@H](Cc2cccc(C(=N)N)c2)NS(=O)(=O)c2ccc3ccccc3c2)CC1 [2NAPS-(L)-F(3AMD)-Pzd(N—Ac)]

LRAT inhibition, Inhibition [%] [1]: 6.8%
Compound: CS(=O)(=O)N1CCN(C(=O)C(N)Cc2cccc(C(=N)N)c2)CC1.Cl.Cl (centres unmarked) [H-(D,L)-F(3AMD)-Pzd(N—SO2Me) × 2 HCl, H-(D,L)-F(3AMD)-Pzd(N—SO2Me), reference compound]

LRAT inhibition, Inhibition [%] [1]: 0%
Compound: DODS-(L)-F(4NH2)-Pzd(N—SO2Me) [reference compound]
